Experimental data published in patent US9290459B1, “Substituted bicyclic dihydropyrimidinones and their use as inhibitors of neutrophil elastase activity” (Boehringer Ingelheim International GmbH, priority 2013, dated 2016).
Converted amounts (≈) assume the structure as drawn.

How the values were obtained:
[1] = test system: human hepatocytes; test: Metabolic stability with human hepatocytes; format: in vitro ADME; settings: human hepatocyte suspension, 1 μM test compound, scaled with well stirred model
Experimental: Assay for the Determination of Metabolic Stability with Human Hepatocytes The metabolic degradation of the test compound is assayed in a human hepatocyte suspension. Human hepatocytes (typically cryopreserved) are incubated in an appropriate buffer system (e.g. […] Samples are transferred into acetonitrile and pelleted by centrifugation (5 min) The supernatant is transferred to a new 96-deepwell plate, evaporated under nitrogen and resuspended. The decline of parent compound is analyzed by LC-MS/MS.

[2] = Aqueous solubility; format: physicochemical; settings: McIlvaine buffer pH 6.8, 2.5% DMSO, 24 h shaking; for solubility at 24 h: McIlvaine buffer pH 6.8 with 2.5% DMSO, pH 6.8, aqueous buffer, kinetic from dmso stock
Experimental: Assay for Determination of Aqueous Solubility […] After 24 h of shaking, the solutions or suspensions are filtered and analyzed by LC-UV. The amount dissolved in buffer is compared to the amount dissolved in the acetonitrile/water (1/1) solution.

[3] = Metabolic stability with human liver microsomes; format: in vitro ADME; settings: for t1/2 INVITRO: pooled human liver microsomes, 1 mg/ml protein, 1 μM test compound, 37° C., NADPH; for half-life at 1 μM: human, microsomes, pH 7.6
[4] = Drug transport across human Caco-2 cells; format: in vitro ADME; settings: human; for Papp A→B at 10 µM / Papp B→A at 10 µM: Caco-2, pH 7.2, Caco-2 monolayers, pH 7.2, 37° C.; for Papp A→B at 10 µM: apical-to-basal, read-out: PEAB; for Papp B→A at 10 µM: basal-to-apical, read-out: PEBA; for efflux ratio at 10 μM: Caco-2, pH 7.2, PEBA/PEAB, Caco-2
Text: (§1) Assay for Determination of Drug Transport Across Human Caco-2 Cells The assay provides information on the potential of a compound to pass the cell membrane, on the extent of oral absorption as well as on whether the compound is actively transported by uptake and/or efflux transporters. […] The compounds are assigned to permeability/absorption classes by comparison of the AB permeabilities with the AB permeabilities of reference compounds with known in vitro permeability and oral absorption in the human. Identical or similar permeabilities in both transport directions indicate passive permeation, vectorial permeability points to additional active transport mechanisms. […] Active transport is concentration-dependently saturable. Caco-2 cells (1-2*10^5 cells/cm^2 area) are seeded on filter inserts (Costar transwell polycarbonate or PET filters, 0.4 nm pore size) and cultured (DMEM) for 10 to 25 days. […] The transport solution (TL) is applied ici to the apical or basolateral donor side for measuring A-B or B-A permeability (3 filter replicates), respectively. The receiver side contains HTP-4 buffer supplemented with 2% BSA. […] Sampled receiver volumes are replaced with fresh receiver solution.

[5] = target: Human neutrophil elastase (Homo sapiens (Human), UniProt P08246); test: Human Neutrophil Elastase Assay; format: biochemical; settings: human neutrophil elastase, substrate MeOSuc-Ala-Ala-Pro-Val-AMC 250 μM, pH 7.5; read-out: IC50
Chain of Human neutrophil elastase (P08246 30-247): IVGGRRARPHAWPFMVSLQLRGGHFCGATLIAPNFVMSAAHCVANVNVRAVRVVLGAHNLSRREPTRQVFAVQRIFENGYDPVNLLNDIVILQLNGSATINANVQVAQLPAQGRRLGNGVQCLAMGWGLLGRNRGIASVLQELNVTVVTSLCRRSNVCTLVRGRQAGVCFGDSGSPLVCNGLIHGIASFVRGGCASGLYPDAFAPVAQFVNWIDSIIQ

[6] = target: neutrophil elastase in human plasma (Homo sapiens (Human), UniProt P08246); test: Neutrophil elastase inhibitory activity in human plasma (zymosan-stimulated blood); format: biochemical; settings: neutrophil elastase enriched human plasma from zymosan-stimulated blood; read-out: EC50
Chain of neutrophil elastase in human plasma (P08246 30-247): as above
Experimental: Assay for the Determination of Neutrophil Elastase Inhibitory Activity in Human Plasma
Citrated blood from human healthy donors is mixed with zymosan suspension and incubated at room temperature. This leads to the stimulation of neutrophils and the release of neutrophil elastase into the plasma. The stimulated blood is centrifuged to generate the neutrophil elastase enriched plasma.
Various concentrations of the neutrophil elastase inhibitor are incubated with plasma. […] A dose response curve is generated to calculate the EC50 of the inhibitor.

[7] = test system: Caco-2 cells; test: Drug transport across human Caco-2 cells; format: in vitro ADME
Text: as §1

| Structure (SMILES) | CL (predicted human hepatic in vivo blood clearance) [1] [mL/min/kg] | Aqueous solubility [2] [µg/mL] | t1/2 INVITRO [3] [h] | half-life at 1 μM [3] [h] | Papp A→B at 10 µM [4] [×10⁻⁶ cm/s] | Papp B→A at 10 µM [4] [×10⁻⁶ cm/s] | solubility at 24 h [2] [µg/mL] | IC50 [5] [nM] | EC50 [6] [nM] | efflux ratio at 10 μM [4] | PEAB ([7]; Caco-2 monolayers, apical-to-basal, pH 7.2, 37° C.) [×10⁻⁶ cm/s] | PEBA ([7]; Caco-2 monolayers, basal-to-apical, pH 7.2, 37° C.) [×10⁻⁶ cm/s] | Efflux ratio ([7]; PEBA/PEAB, Caco-2) |
| --- | --- | --- | --- | --- | --- | --- | --- | --- | --- | --- | --- | --- | --- |
| CN(C)C(=O)CN1C(=O)N(c2cccc(C(F)(F)F)c2)C2=C(C(=O)CC2)C1c1ccc(C#N)cc1 (stereo not drawn) [Example 6.2] | 6 | 77 | – | – | – | – | – | – | – | – | – | – | – |
| N#Cc1ccc(C2C3=C(CCC3=O)N(c3cccc(C(F)(F)F)c3)C(=O)N2CC(=O)N2CCC2)cc1 (stereo not drawn) [Example 6.3] | 4 | 121 | >2.17 | – | – | – | – | – | – | – | – | – | – |
| CNC(=O)N1C(=O)N(c2cccc(C(F)(F)F)c2)C2=C(C(=O)CC2)[C@H]1c1ccc(C#N)cc1 [Example 7.1A, (R)-4-(4-Cyanophenyl)-N-methyl-2,5-dioxo-1-(3-(trifluoromethyl)phenyl)-4,5,6,7-tetrahydro-1H-cyclopenta[d]pyrimidine-3(2H)-carboxamide] | 3 | – | – | > 2.17 | 72.7 | 68.1 | 23 (≈ 50.6 µM) | – | – | – | – | – | – |
| N#Cc1ccc([C@@H]2C3=C(CCC3=O)N(c3cccc(C(F)(F)F)c3)C(=O)N2C(=O)NCCO)cc1 [Example 7.2A, (R)-4-(4-Cyanophenyl)-N-(2-hydroxyethyl)-2,5-dioxo-1-(3-(trifluoromethyl)phenyl)-4,5,6,7-tetrahydro-1H-cyclopenta[d]pyrimidine-3(2H)-carboxamide] | 0 | – | – | > 2.17 | 4.03 | 63.3 | 72 (≈ 149 µM) | – | – | – | – | – | – |
| CCS(=O)(=O)c1cc(C#N)ccc1C1NC(=O)N(c2cccc(C(F)(F)F)c2)C2=C1C(=O)CC2 (stereo not drawn) [Example 14, 4-(2,5-Dioxo-1-(3-(trifluoromethyl)phenyl)-2,3,4,5,6,7-hexahydro-1H-cyclopenta[d]pyrimidin-4-yl)-3-(ethylsulfonyl)benzonitrile] | 4 | – | – | > 2.17 | – | – | 45 (≈ 91.9 µM) | 4.7 | – | – | – | – | – |
| CS(=O)(=O)c1cc(C#N)ccc1C1NC(=O)N(c2cccc(C(F)F)c2)C2=C1C(=O)CC2 (stereo not drawn) [Example 15.4, 4-(1-(3-(difluoromethyl)phenyl)-2,5-dioxo-2,3,4,5,6,7-hexahydro-1H-cyclopenta[d]pyrimidin-4-yl)-3-(methylsulfonyl)benzonitrile] | 0 | – | – | > 2.17 | – | – | 69 (≈ 151 µM) | 9.7 | – | – | – | – | – |
| CS(=O)(=O)c1cc(C#N)ccc1[C@@H]1C2=C(CCC2=O)N(c2cccc(C(F)(F)F)c2)C(=O)N1CC#N [Example 23, (S)-4-(3-(Cyanomethyl)-2,5-dioxo-1-(3-(trifluoromethyl)phenyl)-2,3,4,5,6,7-hexahydro-1H-cyclopenta[d]pyrimidin-4-yl)-3-(methylsulfonyl)benzonitrile] | 0 | – | – | > 2.17 | 10.3 | 93.5 | 15 (≈ 29.2 µM) | 3.4 | < 1 | 9.1 | – | – | – |
| CN1C(=O)N(c2cccc(C(F)(F)F)c2)C2=C(C(=O)CC2)[C@H]1c1ccc(C#N)cc1S(C)(=O)=O [Example 25, (S)-4-(3-Methyl-2,5-dioxo-1-(3-(trifluoromethyl)phenyl)-2,3,4,5,6,7-hexahydro-1H-cyclopenta[d]pyrimidin-4-yl)-3-(methylsulfonyl)benzonitrile] | 2 | – | – | > 2.17 | 56.7 | 74 | 62 (≈ 127 µM) | < 1 | 1 | 1.3 | – | – | – |
| COC(=O)N1C(=O)N(c2cccc(C(F)(F)F)c2)C2=C(C(=O)CC2)[C@H]1c1ccc(C#N)cc1S(C)(=O)=O [Example 33, (S)-Methyl 4-(4-cyano-2-(methylsulfonyl)phenyl)-2,5-dioxo-1-(3-(trifluoromethyl)-phenyl)-4,5,6,7-tetrahydro-1H-cyclopenta[d]pyrimidine-3(2H)-carboxylate] | – | – | – | > 2.17 | 9.08 | 71.2 | 43 (≈ 80.6 µM) | < 1 | < 1 | 7.8 | – | – | – |
| N#Cc1ccc(C2C3=C(CCC3=O)N(c3cccc(C(F)(F)F)c3)C(=O)N2C(=O)NC2CCOCC2)cc1 (stereo not drawn) [Example 41.16] | – | – | >2.17 | – | – | – | – | – | – | – | 58.9 | 57.7 | 1.0 |
| N#Cc1ccc(C2C3=C(CCC3=O)N(c3cccc(C(F)(F)F)c3)C(=O)N2C(=O)N[C@H]2CCC[C@@H]2O)cc1 (stereo partly drawn) [Example 42.4] | 0 | – | – | > 2.17 | 39.7 | 78 | 21 (≈ 40 µM) | – | – | 2 | – | – | – |
| N#Cc1ccc(C2C3=C(CCC3=O)N(c3cccc(C(F)(F)F)c3)C(=O)N2C(=O)N[C@H]2COC[C@H]2O)cc1 (stereo partly drawn) [Example 42.6] | 5 | – | – | – | – | – | 67 (≈ 127 µM) | – | – | – | – | – | – |
| N#Cc1ccc([C@@H]2C3=C(CCC3=O)N(c3cccc(C(F)(F)F)c3)C(=O)N2C(=O)N[C@H]2COC[C@@H]2O)cc1 [Example 45.5] | 0 | – | – | > 2.17 | – | – | 56 (≈ 106 µM) | – | – | – | – | – | – |
| CS(=O)(=O)c1cc(C#N)ccc1[C@@H]1C2=C(CCC2=O)N(c2cccc(C(F)(F)F)c2)C(=O)N1C(=O)NC1CC1 [Example 47.4] | – | – | – | > 2.17 | 7.74 | 85.5 | 19 (≈ 34 µM) | < 1 | < 1 | – | – | – | – |
| CC(C)NC(=O)N1C(=O)N(c2cccc(C(F)(F)F)c2)C2=C(C(=O)CC2)[C@H]1c1ccc(C#N)cc1S(C)(=O)=O [Example 47.5] | – | – | – | > 2.17 | 19.2 | 86.7 | 16 (≈ 28.5 µM) | < 1 | 1 | – | – | – | – |
| CS(=O)(=O)CCNC(=O)N1C(=O)N(c2cccc(C(F)(F)F)c2)C2=C(C(=O)CC2)C1c1ccc(C#N)cc1F (stereo not drawn) [Example 49.3] | 0 | – | – | > 2.17 | – | – | 32 (≈ 56.7 µM) | – | – | – | – | – | – |
| CNC(=O)N1C(=O)N(c2cccc(C(F)(F)F)c2)C2=C(C(=O)CC2)C1c1ccc(C#N)cn1 (stereo not drawn) [Example 50.1] | 1 | – | – | – | 66.7 | 66.1 | 41 (≈ 90 µM) | 4 | 16 | 1 | – | – | – |
| CNC(=O)N1C(=O)N(c2cccc(C(F)F)c2)C2=C(C(=O)CC2)C1c1ccc(C#N)cc1 (stereo not drawn) [Example 52.1] | – | – | – | > 2.17 | 57.1 | 58.3 | 41 (≈ 93.9 µM) | 1.1 | < 1 | 1 | – | – | – |
| CCNC(=O)N1C(=O)N(c2cccc(C(F)F)c2)C2=C(C(=O)CC2)C1c1ccc(C#N)cc1 (stereo not drawn) [Example 52.2] | 3 | – | – | > 2.17 | 70.8 | 80.3 | 16 (≈ 35.5 µM) | < 1 | 1 | 1.1 | – | – | – |
| CC(C)(O)CNC(=O)N1C(=O)N(c2cccc(C(F)F)c2)C2=C(C(=O)CC2)C1c1ccc(C#N)cc1 (stereo not drawn) [Example 52.5] | – | – | – | > 2.17 | 4.45 | 62.7 | 70 (≈ 142 µM) | < 1 | 1 | 14.1 | – | – | – |
| N#Cc1ccc([C@@H]2C3=C(CCC3=O)N(c3cccc(C(F)F)c3)C(=O)N2C(=O)NCCCO)cc1 [Example 52A, (R)-4-(4-Cyanophenyl)-1-(3-(difluoromethyl)phenyl)-N-(3-hydroxypropyl)-2,5-dioxo-4,5,6,7-tetrahydro-1H-cyclopenta[d]pyrimidine-3(2H)-carboxamide] | 8 | – | – | > 2.17 | – | – | 88 (≈ 183 µM) | < 1 | < 1 | – | – | – | – |
| CS(=O)(=O)c1cc(C#N)ccc1C1C2=C(CCC2=O)N(c2cccc(C(F)F)c2)C(=O)N1C(=O)NC1CC1 (stereo not drawn) [Example 53.3] | 0 | – | – | – | – | – | 34 (≈ 62.9 µM) | – | – | – | – | – | – |
| CC(C)NC(=O)N1C(=O)N(c2cccc(C(F)F)c2)C2=C(C(=O)CC2)C1c1ccc(C#N)cc1S(C)(=O)=O (stereo not drawn) [Example 53.4] | 0 | – | – | > 2.17 | 9.85 | 94.4 | 14 (≈ 25.8 µM) | – | – | – | – | – | – |
